# Assay results: US10711041B2, “Lyophilisate containing a cyclic peptide of formula X1-[sequence]-X2” (priority 2013, dated 2020)
# Key:
# [1] = Stability investigation of the lyophilisate (visual inspection, reverse HPLC); type: physicochemical
# Description: For that the lyophilisate was stored up to 24 months at 2 to 8° C. and up to 6 months at 25° C. at 60% relative humidity. Stability was investigated at different time points during that period. In particular the appearance, contents, as well as purity of the cyclic peptides were investigated. For that laboratory-common analytical processes were used, such as e.g. visual inspection and reverse HPLC.
# [2] = target: T1, amilorid-sensitive Sodium Ion Channel (ENaC) (Homo sapiens, UniProt P37088); assay: Patch Clamp whole cell sodium current in deglycosylated (PNGase F) and untreated A549 cells; type: cell-based; conditions: pre-treatment with PNGase F, peptide 240 nM, Eh = −100 mV
# T1 construct: Macroscopic Sodium Ion Currents were derived from human lung epithelian cells A549; endogenous in cells; host or cells: A549 human lung epithelial cells
# T1 sequence (P37088 1-669): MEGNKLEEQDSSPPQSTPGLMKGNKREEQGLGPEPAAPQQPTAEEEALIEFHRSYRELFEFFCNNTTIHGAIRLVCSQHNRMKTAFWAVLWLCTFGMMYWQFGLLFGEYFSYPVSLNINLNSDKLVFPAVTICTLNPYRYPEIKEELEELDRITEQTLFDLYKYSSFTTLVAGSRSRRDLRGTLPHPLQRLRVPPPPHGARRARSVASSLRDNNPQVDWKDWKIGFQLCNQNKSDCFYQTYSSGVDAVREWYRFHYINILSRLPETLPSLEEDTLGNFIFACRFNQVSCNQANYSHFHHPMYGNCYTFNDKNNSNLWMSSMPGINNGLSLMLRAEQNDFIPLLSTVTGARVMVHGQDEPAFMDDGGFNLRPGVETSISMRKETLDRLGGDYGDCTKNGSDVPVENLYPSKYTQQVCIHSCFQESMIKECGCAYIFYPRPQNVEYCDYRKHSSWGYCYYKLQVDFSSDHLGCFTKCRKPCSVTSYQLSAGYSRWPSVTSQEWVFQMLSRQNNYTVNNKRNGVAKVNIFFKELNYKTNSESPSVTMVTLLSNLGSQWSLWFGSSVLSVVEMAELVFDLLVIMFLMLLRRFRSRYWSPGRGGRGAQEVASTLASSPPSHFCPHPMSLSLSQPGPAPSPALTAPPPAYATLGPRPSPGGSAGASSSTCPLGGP
# T1 sequence (P51168 1-640 partner): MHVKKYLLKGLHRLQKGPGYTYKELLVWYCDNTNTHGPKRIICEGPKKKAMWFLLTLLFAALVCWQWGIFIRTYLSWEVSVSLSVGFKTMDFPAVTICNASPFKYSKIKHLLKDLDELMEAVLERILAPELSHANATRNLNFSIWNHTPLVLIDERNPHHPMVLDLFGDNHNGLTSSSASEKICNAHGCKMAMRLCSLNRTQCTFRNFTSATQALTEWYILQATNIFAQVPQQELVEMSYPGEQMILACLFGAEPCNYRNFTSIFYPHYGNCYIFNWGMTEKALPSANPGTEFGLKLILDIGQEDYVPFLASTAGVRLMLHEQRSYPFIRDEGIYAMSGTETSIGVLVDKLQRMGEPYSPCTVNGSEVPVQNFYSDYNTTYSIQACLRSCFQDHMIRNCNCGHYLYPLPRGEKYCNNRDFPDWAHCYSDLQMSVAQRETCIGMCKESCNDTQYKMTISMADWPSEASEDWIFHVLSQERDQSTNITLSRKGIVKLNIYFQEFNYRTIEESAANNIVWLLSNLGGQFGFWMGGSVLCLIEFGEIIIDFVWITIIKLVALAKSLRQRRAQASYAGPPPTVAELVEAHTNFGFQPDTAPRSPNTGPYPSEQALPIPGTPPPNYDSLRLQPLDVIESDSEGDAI
# T1 sequence (P51170 1-649 partner): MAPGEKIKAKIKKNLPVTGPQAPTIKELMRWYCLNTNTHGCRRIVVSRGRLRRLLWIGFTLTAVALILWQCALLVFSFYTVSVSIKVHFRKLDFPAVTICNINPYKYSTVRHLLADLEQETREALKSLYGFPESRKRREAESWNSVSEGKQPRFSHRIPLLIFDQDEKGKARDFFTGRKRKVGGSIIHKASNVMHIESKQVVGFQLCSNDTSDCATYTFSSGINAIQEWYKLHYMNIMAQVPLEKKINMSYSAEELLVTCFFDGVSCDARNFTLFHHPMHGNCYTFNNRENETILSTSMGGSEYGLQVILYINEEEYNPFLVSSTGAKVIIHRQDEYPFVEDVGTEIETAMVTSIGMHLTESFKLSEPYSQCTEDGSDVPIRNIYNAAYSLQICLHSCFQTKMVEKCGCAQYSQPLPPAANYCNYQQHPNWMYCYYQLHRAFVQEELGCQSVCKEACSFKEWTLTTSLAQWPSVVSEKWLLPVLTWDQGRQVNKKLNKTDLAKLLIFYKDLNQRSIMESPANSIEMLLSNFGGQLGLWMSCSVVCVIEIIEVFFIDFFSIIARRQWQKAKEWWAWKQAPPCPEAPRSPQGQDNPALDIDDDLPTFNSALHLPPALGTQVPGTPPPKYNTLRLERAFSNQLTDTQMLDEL
# Description: […] After control recordings, 240 nM of the peptide of amino acid sequence SEQ ID NO:1 was added to the bath solution. […] Whole cell currents were recorded at Eh=−100 mV. The concentration of the peptides of amino acid sequence SEQ ID NO:1 to SEQ ID NO:7 in the bath solution was 240 nM.
# [3] = storage 2-8° C., T = 0 to T = 24 M
# [4] = storage 25° C./60% rH, T = 0 to T = 6 M
smiles,measurement,setting,value
C[C@@H]1NC(=O)CNC(=O)[C@H](CCC(=O)O)NC(=O)[C@@H]2CCCN2C(=O)[C@H]([C@@H](C)O)NC(=O)[C@H](CCC(=O)O)NC(=O)[C@H](CCCNC(=N)N)NC(=O)[C@H](CCC(N)=O)NC(=O)CNC(=O)[C@@H]2CCCN2C(=O)[C@H](CO)NC(=O)[C@@H](N)CCCCNC(=O)CC[C@@H](C(=O)O)NC(=O)[C@H](Cc2ccc(O)cc2)NC(=O)[C@H](Cc2c[nH]c3ccccc23)NC(=O)[C@@H]2CCCN2C(=O)[C@H](CCCCN)NC(=O)[C@H](C)NC(=O)[C@H](CCC(=O)O)NC1=O [SEQ ID NO: 2],Amount/Contents of lyophilisate,"[1]; storage 2-8° C., T = 0",100%
same,Purity of lyophilisate (stability study),"[1]; storage 2-8° C., T = 0",96%
same,Appearence of lyophilisate,[1]; [3],white powder
same,Amount/Contents of lyophilisate,"[1]; storage 2-8° C., T = 24 M",99%
same,Purity of lyophilisate (stability study),"[1]; storage 2-8° C., T = 24 M",96%
same,Amount/Contents of lyophilisate,"[1]; storage 25° C./60% rH, T = 0",100%
same,Purity of lyophilisate (stability study),"[1]; storage 25° C./60% rH, T = 0",96%
same,Appearence of lyophilisate,[1]; [4],white powder
same,Amount/Contents of lyophilisate,"[1]; storage 25° C./60% rH, T = 6 M",99%
same,Purity of lyophilisate (stability study),"[1]; storage 25° C./60% rH, T = 6 M",95%
same,whole cell sodium current,[2],21.3 pA (n = 3)
C[C@@H]1NC(=O)CNC(=O)[C@H](CCC(=O)O)NC(=O)[C@@H]2CCCN2C(=O)[C@H]([C@@H](C)O)NC(=O)[C@H](CCC(=O)O)NC(=O)[C@H](CCCNC(=N)N)NC(=O)[C@H](CCC(N)=O)NC(=O)CNC(=O)[C@@H](N)CCCCNC(=O)CNC(=O)[C@H](Cc2ccc(O)cc2)NC(=O)[C@H](Cc2c[nH]c3ccccc23)NC(=O)[C@@H]2CCCN2C(=O)[C@H](CCCCN)NC(=O)[C@H](C)NC(=O)[C@H](CCC(=O)O)NC1=O [SEQ ID NO: 3],Amount/Contents of lyophilisate,"[1]; storage 2-8° C., T = 0",100%
same,Purity of lyophilisate (stability study),"[1]; storage 2-8° C., T = 0",98%
same,Appearence of lyophilisate,[1]; [3],white powder
same,Amount/Contents of lyophilisate,"[1]; storage 2-8° C., T = 24 M",99%
same,Purity of lyophilisate (stability study),"[1]; storage 2-8° C., T = 24 M",98%
same,Amount/Contents of lyophilisate,"[1]; storage 25° C./60% rH, T = 0",100%
same,Purity of lyophilisate (stability study),"[1]; storage 25° C./60% rH, T = 0",98%
same,Appearence of lyophilisate,[1]; [4],white powder
same,Amount/Contents of lyophilisate,"[1]; storage 25° C./60% rH, T = 6 M",99%
same,Purity of lyophilisate (stability study),"[1]; storage 25° C./60% rH, T = 6 M",97%
same,whole cell sodium current,[2],20.6 pA (n = 3)
C[C@@H]1NC(=O)CNC(=O)[C@H](CCC(=O)O)NC(=O)[C@@H]2CCCN2C(=O)[C@H]([C@@H](C)O)NC(=O)[C@H](CCC(=O)O)NC(=O)[C@H](CCCNC(=N)N)NC(=O)[C@H](CCC(N)=O)NC(=O)CNC(=O)[C@@H](N)CCCNC(=O)CNC(=O)[C@H](Cc2ccc(O)cc2)NC(=O)[C@H](Cc2c[nH]c3ccccc23)NC(=O)[C@@H]2CCCN2C(=O)[C@H](CCCCN)NC(=O)[C@H](C)NC(=O)[C@H](CCC(=O)O)NC1=O [SEQ ID NO: 4],Amount/Contents of lyophilisate,"[1]; storage 2-8° C., T = 0",100%
same,Purity of lyophilisate (stability study),"[1]; storage 2-8° C., T = 0",97%
same,Appearence of lyophilisate,[1]; [3],white powder
same,Amount/Contents of lyophilisate,"[1]; storage 2-8° C., T = 24 M",99%
same,Purity of lyophilisate (stability study),"[1]; storage 2-8° C., T = 24 M",97%
same,Amount/Contents of lyophilisate,"[1]; storage 25° C./60% rH, T = 0",100%
same,Purity of lyophilisate (stability study),"[1]; storage 25° C./60% rH, T = 0",97%
same,Appearence of lyophilisate,[1]; [4],white powder
same,Amount/Contents of lyophilisate,"[1]; storage 25° C./60% rH, T = 6 M",99%
same,Purity of lyophilisate (stability study),"[1]; storage 25° C./60% rH, T = 6 M",96%
same,whole cell sodium current,[2],22.5 pA (n = 3)
C[C@@H]1NC(=O)CNC(=O)[C@H](CCC(=O)O)NC(=O)[C@@H]2CCCN2C(=O)[C@H]([C@@H](C)O)NC(=O)[C@H](CCC(=O)O)NC(=O)[C@H](CCCNC(=N)N)NC(=O)[C@H](CCC(N)=O)NC(=O)CNC(=O)CCCNC(=O)C[C@@H](C(=O)O)NC(=O)[C@H](Cc2ccc(O)cc2)NC(=O)[C@H](Cc2c[nH]c3ccccc23)NC(=O)[C@@H]2CCCN2C(=O)[C@H](CCCCN)NC(=O)[C@H](C)NC(=O)[C@H](CCC(=O)O)NC1=O [SEQ ID NO: 5],Amount/Contents of lyophilisate,"[1]; storage 2-8° C., T = 0",100%
same,Purity of lyophilisate (stability study),"[1]; storage 2-8° C., T = 0",99%
same,Appearence of lyophilisate,[1]; [3],white powder
same,Amount/Contents of lyophilisate,"[1]; storage 2-8° C., T = 24 M",99%
same,Purity of lyophilisate (stability study),"[1]; storage 2-8° C., T = 24 M",99%
same,Amount/Contents of lyophilisate,"[1]; storage 25° C./60% rH, T = 0",100%
same,Purity of lyophilisate (stability study),"[1]; storage 25° C./60% rH, T = 0",99%
same,Appearence of lyophilisate,[1]; [4],white powder
same,Amount/Contents of lyophilisate,"[1]; storage 25° C./60% rH, T = 6 M",99%
same,Purity of lyophilisate (stability study),"[1]; storage 25° C./60% rH, T = 6 M",98%
same,whole cell sodium current,[2],22.4 pA (n = 3)
C[C@@H]1NC(=O)CNC(=O)[C@H](CCC(=O)O)NC(=O)[C@@H]2CCCN2C(=O)[C@H]([C@@H](C)O)NC(=O)[C@H](CCC(=O)O)NC(=O)[C@H](CCCNC(=N)N)NC(=O)[C@H](CCC(N)=O)NC(=O)CNC(=O)CCNC(=O)CC[C@@H](C(=O)O)NC(=O)[C@H](Cc2ccc(O)cc2)NC(=O)[C@H](Cc2c[nH]c3ccccc23)NC(=O)[C@@H]2CCCN2C(=O)[C@H](CCCCN)NC(=O)[C@H](C)NC(=O)[C@H](CCC(=O)O)NC1=O [SEQ ID NO: 6],Amount/Contents of lyophilisate,"[1]; storage 2-8° C., T = 0",100%
same,Purity of lyophilisate (stability study),"[1]; storage 2-8° C., T = 0",99%
same,Appearence of lyophilisate,[1]; [3],white powder
same,Amount/Contents of lyophilisate,"[1]; storage 2-8° C., T = 24 M",99%
same,Purity of lyophilisate (stability study),"[1]; storage 2-8° C., T = 24 M",99%
same,Amount/Contents of lyophilisate,"[1]; storage 25° C./60% rH, T = 0",100%
same,Purity of lyophilisate (stability study),"[1]; storage 25° C./60% rH, T = 0",99%
same,Appearence of lyophilisate,[1]; [4],white powder
same,Amount/Contents of lyophilisate,"[1]; storage 25° C./60% rH, T = 6 M",99%
same,Purity of lyophilisate (stability study),"[1]; storage 25° C./60% rH, T = 6 M",98%
same,whole cell sodium current,[2],19.9 pA (n = 3)
